Measurements from the kinase profiling compilation of Christmann-Franck et al. (2016).

Columns and labels:
PIM2 (human) [1] = target: PIM2 (human) (UniProt Q9P1W9); experiment: SelectScreen, TR FRET
PIM1 (human) [2] = target: PIM1 (human) (UniProt P11309); experiment: SelectScreen, TR FRET
CDK11A (human) = CDK11A (human) (UniProt Q9UQ88); experiment: KINOMEscan competition binding; settings: compound 10.0 µM
RET (human) = RET (human) (UniProt P07949); experiment: KINOMEscan competition binding; settings: compound 10.0 µM
STK24 (human) = STK24 (human) (UniProt Q9Y6E0); experiment: KINOMEscan competition binding; settings: compound 10.0 µM
RPS6KA6 KD2 (human) = RPS6KA6 KD2 (human) (UniProt Q9UK32); experiment: KINOMEscan competition binding; settings: compound 10.0 µM
STK17A (human) = STK17A (human) (UniProt Q9UEE5); experiment: KINOMEscan competition binding; settings: compound 10.0 µM
SLK (human) = SLK (human) (UniProt Q9H2G2); experiment: KINOMEscan competition binding; settings: compound 10.0 µM
Sequence of SLK (human) (Q9H2G2 whole entry, looked up): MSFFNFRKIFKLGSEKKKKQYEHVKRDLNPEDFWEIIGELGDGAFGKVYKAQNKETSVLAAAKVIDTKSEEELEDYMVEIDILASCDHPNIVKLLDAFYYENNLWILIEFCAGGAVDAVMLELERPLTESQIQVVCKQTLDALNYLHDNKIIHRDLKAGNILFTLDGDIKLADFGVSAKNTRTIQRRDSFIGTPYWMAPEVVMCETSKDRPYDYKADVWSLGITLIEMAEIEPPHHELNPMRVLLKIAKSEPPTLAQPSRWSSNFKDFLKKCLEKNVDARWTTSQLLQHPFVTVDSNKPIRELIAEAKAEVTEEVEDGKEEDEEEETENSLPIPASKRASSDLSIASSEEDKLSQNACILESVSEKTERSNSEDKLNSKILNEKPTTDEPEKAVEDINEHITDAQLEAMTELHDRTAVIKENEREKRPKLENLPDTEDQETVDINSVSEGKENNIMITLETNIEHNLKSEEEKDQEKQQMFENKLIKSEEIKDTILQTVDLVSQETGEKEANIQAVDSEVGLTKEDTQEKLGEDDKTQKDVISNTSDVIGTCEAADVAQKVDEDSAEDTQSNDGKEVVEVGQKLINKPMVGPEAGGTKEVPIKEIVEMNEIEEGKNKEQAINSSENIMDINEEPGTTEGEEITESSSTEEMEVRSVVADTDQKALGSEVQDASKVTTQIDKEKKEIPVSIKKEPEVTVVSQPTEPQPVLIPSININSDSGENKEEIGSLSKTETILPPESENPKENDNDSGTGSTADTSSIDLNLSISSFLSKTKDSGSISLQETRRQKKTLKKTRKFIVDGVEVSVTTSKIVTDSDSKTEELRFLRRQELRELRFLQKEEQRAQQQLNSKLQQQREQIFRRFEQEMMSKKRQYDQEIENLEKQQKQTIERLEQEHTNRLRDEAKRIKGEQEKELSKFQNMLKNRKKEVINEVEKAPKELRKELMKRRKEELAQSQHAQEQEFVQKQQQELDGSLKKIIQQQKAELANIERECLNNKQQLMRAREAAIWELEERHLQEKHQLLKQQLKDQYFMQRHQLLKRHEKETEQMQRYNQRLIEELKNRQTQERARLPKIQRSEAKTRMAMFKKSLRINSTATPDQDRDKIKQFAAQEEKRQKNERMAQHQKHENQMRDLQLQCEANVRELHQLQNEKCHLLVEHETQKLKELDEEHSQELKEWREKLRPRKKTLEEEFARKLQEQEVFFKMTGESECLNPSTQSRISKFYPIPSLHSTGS

CSNK2A2 (human) = CSNK2A2 (human) (UniProt P19784); experiment: KINOMEscan competition binding; settings: compound 10.0 µM
[3] = tested on: RET (human), P07949 [M918T]; experiment: KINOMEscan competition binding; settings: compound 10.0 µM
PLK4 (human) = PLK4 (human) (UniProt O00444); experiment: KINOMEscan competition binding; settings: compound 10.0 µM
FLT1 (human) = FLT1 (human) (UniProt P17948); experiment: KINOMEscan competition binding; settings: compound 10.0 µM
HIPK1 (human) = HIPK1 (human) (UniProt Q86Z02); experiment: KINOMEscan competition binding; settings: compound 10.0 µM
TIE1 (human) = TIE1 (human) (UniProt P35590); experiment: KINOMEscan competition binding; settings: compound 10.0 µM
KDR (human) = KDR (human) (UniProt P35968); experiment: KINOMEscan competition binding; settings: compound 10.0 µM
PDGFRB (human) = PDGFRB (human) (UniProt P09619); experiment: KINOMEscan competition binding; settings: compound 10.0 µM
DDR2 (human) = DDR2 (human) (UniProt Q16832); experiment: KINOMEscan competition binding; settings: compound 10.0 µM
Sequence of DDR2 (human) (Q16832 whole entry, looked up): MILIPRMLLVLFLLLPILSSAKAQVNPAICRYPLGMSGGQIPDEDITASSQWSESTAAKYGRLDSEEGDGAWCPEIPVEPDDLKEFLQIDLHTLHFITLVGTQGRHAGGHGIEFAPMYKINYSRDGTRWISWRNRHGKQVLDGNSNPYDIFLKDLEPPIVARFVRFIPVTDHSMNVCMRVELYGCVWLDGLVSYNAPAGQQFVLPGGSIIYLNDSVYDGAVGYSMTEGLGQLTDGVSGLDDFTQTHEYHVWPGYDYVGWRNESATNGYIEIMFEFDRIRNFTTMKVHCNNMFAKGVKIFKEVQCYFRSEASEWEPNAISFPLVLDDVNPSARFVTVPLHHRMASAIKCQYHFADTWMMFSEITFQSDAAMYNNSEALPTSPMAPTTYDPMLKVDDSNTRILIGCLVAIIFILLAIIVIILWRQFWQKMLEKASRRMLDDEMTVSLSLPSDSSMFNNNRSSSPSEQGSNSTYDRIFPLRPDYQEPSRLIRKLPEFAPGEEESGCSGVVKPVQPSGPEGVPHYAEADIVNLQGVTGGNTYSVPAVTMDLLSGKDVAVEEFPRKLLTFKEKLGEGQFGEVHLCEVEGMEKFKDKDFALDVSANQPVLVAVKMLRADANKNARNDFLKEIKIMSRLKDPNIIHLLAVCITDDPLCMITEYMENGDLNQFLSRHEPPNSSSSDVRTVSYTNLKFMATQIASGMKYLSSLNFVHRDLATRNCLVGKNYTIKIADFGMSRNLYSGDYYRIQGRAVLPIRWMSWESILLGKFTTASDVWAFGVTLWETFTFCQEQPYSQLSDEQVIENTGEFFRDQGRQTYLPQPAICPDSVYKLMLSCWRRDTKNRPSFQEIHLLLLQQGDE

STK17B (human) = STK17B (human) (UniProt O94768); experiment: KINOMEscan competition binding; settings: compound 10.0 µM
TLK1 (human) = TLK1 (human) (UniProt Q9UKI8); experiment: KINOMEscan competition binding; settings: compound 10.0 µM
Sequence of TLK1 (human) (Q9UKI8 whole entry, looked up): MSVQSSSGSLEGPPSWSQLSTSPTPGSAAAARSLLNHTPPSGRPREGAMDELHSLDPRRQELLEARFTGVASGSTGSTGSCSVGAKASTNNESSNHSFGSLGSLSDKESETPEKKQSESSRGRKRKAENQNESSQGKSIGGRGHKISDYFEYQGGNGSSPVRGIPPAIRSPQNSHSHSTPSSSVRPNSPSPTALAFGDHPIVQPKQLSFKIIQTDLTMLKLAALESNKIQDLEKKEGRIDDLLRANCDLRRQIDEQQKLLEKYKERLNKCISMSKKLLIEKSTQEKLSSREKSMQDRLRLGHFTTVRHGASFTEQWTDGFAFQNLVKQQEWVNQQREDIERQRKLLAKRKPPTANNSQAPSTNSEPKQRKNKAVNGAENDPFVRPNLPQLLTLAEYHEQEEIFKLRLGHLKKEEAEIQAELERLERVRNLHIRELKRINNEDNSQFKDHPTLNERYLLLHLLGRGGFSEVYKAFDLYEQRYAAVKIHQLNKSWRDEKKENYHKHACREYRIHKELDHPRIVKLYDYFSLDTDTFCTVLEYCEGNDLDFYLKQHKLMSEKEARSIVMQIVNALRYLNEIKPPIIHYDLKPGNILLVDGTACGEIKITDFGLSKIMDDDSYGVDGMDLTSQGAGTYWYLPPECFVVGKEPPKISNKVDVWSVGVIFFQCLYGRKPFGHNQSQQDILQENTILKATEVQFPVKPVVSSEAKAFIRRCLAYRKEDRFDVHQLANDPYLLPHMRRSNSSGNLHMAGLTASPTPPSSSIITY

[4] = tested on: KIT (human), P10721 [V559D/T670I]; experiment: KINOMEscan competition binding; settings: compound 10.0 µM
RPS6KA2 KD2 (human) = RPS6KA2 KD2 (human) (UniProt Q15349); experiment: KINOMEscan competition binding; settings: compound 10.0 µM
RPS6KA1 KD2 (human) = RPS6KA1 KD2 (human) (UniProt Q15418); experiment: KINOMEscan competition binding; settings: compound 10.0 µM
[5] = tested on: KIT (human), P10721 [V559D]; experiment: KINOMEscan competition binding; settings: compound 10.0 µM
PDGFRA (human) = PDGFRA (human) (UniProt P16234); experiment: KINOMEscan competition binding; settings: compound 10.0 µM
STK10 (human) = STK10 (human) (UniProt O94804); experiment: KINOMEscan competition binding; settings: compound 10.0 µM
FLT4 (human) = FLT4 (human) (UniProt P35916); experiment: KINOMEscan competition binding; settings: compound 10.0 µM
CDK11B (human) = CDK11B (human) (UniProt P21127); experiment: KINOMEscan competition binding; settings: compound 10.0 µM
Sequence of CDK11B (human) (P21127 whole entry, looked up): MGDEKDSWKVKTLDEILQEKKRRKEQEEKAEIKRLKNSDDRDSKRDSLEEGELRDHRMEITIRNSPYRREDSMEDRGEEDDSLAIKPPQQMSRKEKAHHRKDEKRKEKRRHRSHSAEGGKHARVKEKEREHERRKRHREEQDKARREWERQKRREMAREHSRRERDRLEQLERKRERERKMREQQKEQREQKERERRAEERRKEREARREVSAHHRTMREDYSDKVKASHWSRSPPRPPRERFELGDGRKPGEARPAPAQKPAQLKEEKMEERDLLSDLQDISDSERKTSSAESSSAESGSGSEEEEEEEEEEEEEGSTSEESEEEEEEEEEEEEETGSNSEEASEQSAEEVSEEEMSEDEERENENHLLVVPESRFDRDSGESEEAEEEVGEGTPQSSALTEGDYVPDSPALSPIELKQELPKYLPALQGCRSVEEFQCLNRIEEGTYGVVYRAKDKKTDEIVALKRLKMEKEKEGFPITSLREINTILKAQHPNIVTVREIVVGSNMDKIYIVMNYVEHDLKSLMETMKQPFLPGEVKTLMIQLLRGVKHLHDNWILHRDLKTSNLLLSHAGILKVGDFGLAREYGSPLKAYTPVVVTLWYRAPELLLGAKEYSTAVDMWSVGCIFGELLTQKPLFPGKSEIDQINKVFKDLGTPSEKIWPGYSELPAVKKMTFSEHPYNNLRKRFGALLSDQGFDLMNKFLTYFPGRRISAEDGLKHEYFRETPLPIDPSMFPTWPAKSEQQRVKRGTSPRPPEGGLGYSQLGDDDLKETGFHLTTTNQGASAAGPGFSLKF

CDC2L2 (human) = CDC2L2 (human) (UniProt Q9UQ88); experiment: KINOMEscan competition binding; settings: compound 10.0 µM
PIM2 (human) [6] = target: PIM2 (human) (UniProt Q9P1W9); experiment: KINOMEscan competition binding; settings: compound 10.0 µM
CSNK2A1 (human) = CSNK2A1 (human) (UniProt P68400); experiment: KINOMEscan competition binding; settings: compound 10.0 µM
KIT (human) = KIT (human) (UniProt P10721); experiment: KINOMEscan competition binding; settings: compound 10.0 µM
PIM3 (human) = PIM3 (human) (UniProt Q86V86); experiment: KINOMEscan competition binding; settings: compound 10.0 µM
PIM1 (human) [7] = target: PIM1 (human) (UniProt P11309); experiment: KINOMEscan competition binding; settings: compound 10.0 µM
MAPK8 (human) = MAPK8 (human) (UniProt P45983); experiment: KINOMEscan competition binding; settings: compound 10.0 µM
DDR1 (human) = DDR1 (human) (UniProt Q08345); experiment: KINOMEscan competition binding; settings: compound 10.0 µM
DAPK1 (human) = DAPK1 (human) (UniProt P53355); experiment: KINOMEscan competition binding; settings: compound 10.0 µM
MARK3 (human) = MARK3 (human) (UniProt P27448); experiment: KINOMEscan competition binding; settings: compound 10.0 µM
Sequence of MARK3 (human) (P27448 whole entry, looked up): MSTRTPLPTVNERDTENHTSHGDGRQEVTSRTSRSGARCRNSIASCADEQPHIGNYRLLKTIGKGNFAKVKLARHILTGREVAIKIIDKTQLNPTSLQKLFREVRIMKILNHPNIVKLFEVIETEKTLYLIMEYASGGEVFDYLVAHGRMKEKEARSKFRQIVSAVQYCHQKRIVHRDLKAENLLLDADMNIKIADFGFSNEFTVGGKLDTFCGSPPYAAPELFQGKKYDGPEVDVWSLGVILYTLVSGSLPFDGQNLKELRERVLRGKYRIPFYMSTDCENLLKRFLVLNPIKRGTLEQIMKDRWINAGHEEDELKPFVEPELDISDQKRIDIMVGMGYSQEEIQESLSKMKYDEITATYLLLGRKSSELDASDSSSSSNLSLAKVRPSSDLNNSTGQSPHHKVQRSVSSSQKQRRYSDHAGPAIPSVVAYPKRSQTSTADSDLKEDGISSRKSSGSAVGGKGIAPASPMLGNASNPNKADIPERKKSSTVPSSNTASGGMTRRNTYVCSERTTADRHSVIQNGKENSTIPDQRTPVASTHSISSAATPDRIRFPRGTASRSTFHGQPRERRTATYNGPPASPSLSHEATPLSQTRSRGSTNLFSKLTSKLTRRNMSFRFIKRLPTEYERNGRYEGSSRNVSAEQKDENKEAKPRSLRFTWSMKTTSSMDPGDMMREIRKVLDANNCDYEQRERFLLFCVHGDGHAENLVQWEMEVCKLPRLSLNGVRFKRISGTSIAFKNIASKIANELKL

PHKG1 (human) = PHKG1 (human) (UniProt Q16816); experiment: KINOMEscan competition binding; settings: compound 10.0 µM

Sequence of PIM1 (human) (P11309 whole entry, looked up): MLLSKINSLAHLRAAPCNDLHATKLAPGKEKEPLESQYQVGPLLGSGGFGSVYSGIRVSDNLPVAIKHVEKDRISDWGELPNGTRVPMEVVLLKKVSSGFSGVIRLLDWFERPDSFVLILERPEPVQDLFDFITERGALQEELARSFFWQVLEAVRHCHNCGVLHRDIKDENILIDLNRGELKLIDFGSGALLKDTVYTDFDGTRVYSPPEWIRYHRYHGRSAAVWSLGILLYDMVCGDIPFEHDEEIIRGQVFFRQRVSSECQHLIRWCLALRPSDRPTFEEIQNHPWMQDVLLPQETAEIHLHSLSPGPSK
Sequence of PIM2 (human) (Q9P1W9 whole entry, looked up): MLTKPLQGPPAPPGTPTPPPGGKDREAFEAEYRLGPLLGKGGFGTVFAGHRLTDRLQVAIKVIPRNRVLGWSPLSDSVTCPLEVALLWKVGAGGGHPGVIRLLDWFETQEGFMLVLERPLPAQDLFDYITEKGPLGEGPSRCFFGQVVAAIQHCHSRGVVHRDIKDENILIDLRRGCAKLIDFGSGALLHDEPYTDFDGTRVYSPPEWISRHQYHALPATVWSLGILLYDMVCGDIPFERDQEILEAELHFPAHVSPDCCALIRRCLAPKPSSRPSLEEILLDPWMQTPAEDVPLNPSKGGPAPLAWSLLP

IC50 (PIM2 (human) [1]): 814 nM
IC50 (PIM1 (human) [2]): 774 nM
kinase still bound, per cent of control (CDK11A (human)): 24%
kinase still bound, per cent of control (RET (human)): 4.6%
kinase still bound, per cent of control (STK24 (human)): 25%
kinase still bound, per cent of control (RPS6KA6 KD2 (human)): 20%
kinase still bound, per cent of control (STK17A (human)): 15%
kinase still bound, per cent of control (SLK (human)): 30%
kinase still bound, per cent of control (CSNK2A2 (human)): 6.4%
kinase still bound, per cent of control [3]: 3.9%
kinase still bound, per cent of control (PLK4 (human)): 33%
kinase still bound, per cent of control (FLT1 (human)): 12%
kinase still bound, per cent of control (HIPK1 (human)): 5.4%
kinase still bound, per cent of control (TIE1 (human)): 5.8%
kinase still bound, per cent of control (KDR (human)): 9%
kinase still bound, per cent of control (PDGFRB (human)): 0.25%
kinase still bound, per cent of control (DDR2 (human)): 7.6%
kinase still bound, per cent of control (STK17B (human)): 0.3%
kinase still bound, per cent of control (TLK1 (human)): 13%
kinase still bound, per cent of control [4]: 2.4%
kinase still bound, per cent of control (RPS6KA2 KD2 (human)): 29%
kinase still bound, per cent of control (RPS6KA1 KD2 (human)): 18%
kinase still bound, per cent of control [5]: 1.2%
kinase still bound, per cent of control (PDGFRA (human)): 0.55%
kinase still bound, per cent of control (STK10 (human)): 0.15%
kinase still bound, per cent of control (FLT4 (human)): 5.9%
kinase still bound, per cent of control (CDK11B (human)): 30%
kinase still bound, per cent of control (CDC2L2 (human)): 18%
kinase still bound, per cent of control (PIM2 (human) [6]): 0.4%
kinase still bound, per cent of control (CSNK2A1 (human)): 4.6%
kinase still bound, per cent of control (KIT (human)): 2.6%
kinase still bound, per cent of control (PIM3 (human)): 7%
kinase still bound, per cent of control (PIM1 (human) [7]): 11%
kinase still bound, per cent of control (MAPK8 (human)): 32%
kinase still bound, per cent of control (DDR1 (human)): 0.15%
kinase still bound, per cent of control (DAPK1 (human)): 34%
kinase still bound, per cent of control (MARK3 (human)): 32%
kinase still bound, per cent of control (PHKG1 (human)): 0%
Structure (SMILES): CCN1CCN(Cc2cc(NC(=O)c3cccc4cc(-c5ccc(/C=C6\SC(=O)NC6=O)o5)ccc34)cc(C(F)(F)F)c2)CC1
